# According to patent publication US20220204449A1, “BIASED AGONISTS OF OPIOID RECEPTORS” (ILDONG PHARMACEUTICAL CO., LTD., priority 2020, published 2022):
# Legend:
# Assay type in all cases: cell-based
# [1] = molecular target: T1, human μ-opioid receptor, OPRM (Homo sapiens, UniProt P35372); assay: PathHunter β-arrestin 2 assay, OPRM cell line
# T1 construct: host or cells: HEK-293 overexpressing β-arrestin2 fused to a β-galactosidase fragment
# Text: (§1) Human embryonic kidney 293 (HEK-293) cells which transfected overexpress (3-arrestin2 fused β-galactosidase fragment were purchased from DiscoverX. Human OPRM1 gene (NM 000914.3, encoding human μ-opioid receptor, OPRM) and Human OPRD1 gene (NM 000911.3, encoding human δ-opioid receptor, OPRD) were fused to a pCMV-ProLink plasmid which contains complementary β-galactosidase fragment purchased from DiscoverX. To generate human OPRM1 or OPRD1 expression cell lines, HEK-293 cells were transfected to prepared plasmid and grown in DMEM medium with 10% fetal bovine serum, 150 μg/mL Hygromycin B and 500 μg/mL G418.
# (§2) The PathHunter enzyme assay was performed to measure the agonist's capability of β-arrestin 2 pathway activation. When agonists bind to G protein-coupled receptor (GPCR), the receptor pathway is sequentially activated from G protein to β-arrestin 2 recruitment.
# (§3) Because […] β-arrestin 2 and C-terminal of GPCR have a fragment of β-galactosidase, recruitment of β-arrestin 2 to GPCR forms the whole β-galactosidase. The functionality of the whole β-galactosidase is detected by chemiluminescence (FlexStation3, Molecular Devices).
# (§4) cAMP and β-arrestin assays described above were conducted to decide whether candidate compounds were μ- and/or δ-opioid receptor bias agonists for the G-protein pathway. All assays produced the concentration-response curve, and the curve data was validated by a quality control factor named Z′ factor. Because half-maximal effect concentration (EC50) depends on the population of receptors, the maximal asymptote of the concentration curve was used. Efficacy data of candidates was normalized by comparison to reference agonists DAMGO and SNC80 for OPRM and OPRD.
# [2] = molecular target: T2, human δ-opioid receptor, OPRD (Homo sapiens, UniProt P41143); assay: cAMP accumulation assay (Gi pathway), OPRD cell line; conditions: Table 1
# T2 construct: host or cells: HEK-293 overexpressing β-arrestin2 fused to a β-galactosidase fragment
# Text: as §1
# (§5) Cyclic Adenosine Monophosphate (cAMP) Accumulation
# (§6) The agonist's efficacy to the G protein pathway was determined by changes in the cAMP level using the Cisbio cAMP detection kit. The cells used in cAMP assays are the same cell line as used in the β-arrestin 2 assays. The human opioid receptor activates the Gαi so intracellular cAMP accumulation is inhibited. Cisbio detection kit uses labeled cAMP and antibody. This system proceeds to compete with endogenous cAMP. If Gαi is activated, intracellular cAMP decreases. This assures that labeled-cAMP binds more with the antibody so that time-resolved fluorescence […].
# as §4
# (§7) The hill slope describes the steepness of the curve. […] We set the appropriate interval of hill slope as 0.8<n<1.5 which maintains the sigmoidal curve shape.
# [3] = molecular target: T2, human δ-opioid receptor, OPRD; assay: PathHunter β-arrestin 2 assay, OPRD cell line
# Text: as §1, §2, §3, §4
# [4] = molecular target: T2, human δ-opioid receptor, OPRD; assay: Dominant assay: cAMP assay with/without irreversible antagonist β-CNA, OPRD cell line
# [5] = molecular target: T1, human μ-opioid receptor, OPRM; assay: cAMP accumulation assay (Gi pathway), OPRM cell line; conditions: Table 1
# Text: as §1, §5, §6, §4, §7
# [6] = molecular target: T1, human μ-opioid receptor, OPRM; assay: Dominant assay: cAMP assay with/without irreversible antagonist β-FNA, OPRM cell line
# [7] = cAMP concentration-response curve
# T2 sequence (P41143 whole entry, the tested form may be a part): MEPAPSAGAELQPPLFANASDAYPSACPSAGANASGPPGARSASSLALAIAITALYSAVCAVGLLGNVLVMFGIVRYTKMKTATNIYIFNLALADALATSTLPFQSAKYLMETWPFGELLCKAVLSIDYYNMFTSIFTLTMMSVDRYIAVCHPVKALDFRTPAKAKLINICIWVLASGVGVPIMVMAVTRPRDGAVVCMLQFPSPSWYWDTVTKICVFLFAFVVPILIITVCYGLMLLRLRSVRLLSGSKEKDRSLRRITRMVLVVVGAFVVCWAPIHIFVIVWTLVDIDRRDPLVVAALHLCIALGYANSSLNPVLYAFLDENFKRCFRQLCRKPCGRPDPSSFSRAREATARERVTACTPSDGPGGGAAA
# T1 sequence (P35372 whole entry, the tested form may be a part): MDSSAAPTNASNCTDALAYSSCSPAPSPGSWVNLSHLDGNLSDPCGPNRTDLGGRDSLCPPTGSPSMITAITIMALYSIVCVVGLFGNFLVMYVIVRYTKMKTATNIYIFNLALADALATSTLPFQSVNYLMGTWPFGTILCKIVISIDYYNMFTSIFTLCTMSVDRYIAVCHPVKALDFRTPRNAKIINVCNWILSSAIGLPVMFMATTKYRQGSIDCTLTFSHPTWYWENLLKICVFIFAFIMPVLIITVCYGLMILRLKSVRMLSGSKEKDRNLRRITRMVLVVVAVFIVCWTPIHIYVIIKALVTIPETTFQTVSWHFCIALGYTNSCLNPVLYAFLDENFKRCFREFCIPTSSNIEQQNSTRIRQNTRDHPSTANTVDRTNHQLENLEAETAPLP
smiles,measurement,setting,value
"CN(C)C(CNC(=O)Cc1ccc2c(c1)OCCO2)c1ccccc1 (racemic) [Compound 1, 2-(2,3-dihydro-1,4-benzodioxin-6-yl)-N-[2-(dimethylamino)-2-phenylethyl]acetamide]",Emax,"[1]; Example 3, Tables 5-7, read-out: OPRM β-ARR2 Emax (%)",12.9%
same,Emax,"[1]; Table 1, normalized to reference agonist DAMGO, read-out: OPRM arrestin Emax, %",12.9%
same,OPRD Gi Hill slope,[2]; [7],1.39
same,Emax,"[2]; cAMP, normalized to reference agonist SNC80",88.9%
same,EC50,"[2]; cAMP, read-out: OPRD Gi EC50",4.16 µM
same,Emax,"[3]; Example 3, Tables 5-7, read-out: OPRD β-ARR2 Emax (%)",7.37%
same,Emax,"[3]; Table 1, normalized to reference agonist SNC80, read-out: OPRD arrestin Emax, %",7.37%
same,"completeness of concentration-response curve, in words",[4]; OPRD system,curve was cut due to the X-axis limitation
same,EC50,"[4]; addition of β-CNA, Example 3, Tables 5-7, read-out: OPRD Gi β-CNA (+) EC50",0.009 µM
same,Emax,"[4]; addition of β-CNA, Example 3, Tables 5-7, read-out: OPRD Gi β-CNA (+) Emax (%)",108%
same,EC50,"[4]; addition of β-CNA, repeated dominant assay, Example 4, Tables 8-10, read-out: OPRD Gi β-CNA (+) EC50",7.87 µM
same,Emax,"[4]; addition of β-CNA, repeated dominant assay, Example 4, Tables 8-10, read-out: OPRD Gi β-CNA (+) Emax (%)",46.6%
same,EC50,"[4]; no addition of β-CNA, Example 3, Tables 5-7, read-out: OPRD Gi β-CNA (−) EC50",0.00491 µM
same,Emax,"[4]; no addition of β-CNA, Example 3, Tables 5-7, read-out: OPRD Gi β-CNA (−) Emax (%)",113%
same,EC50,"[4]; no addition of β-CNA, repeated dominant assay, Example 4, Tables 8-10, read-out: OPRD Gi β-CNA (−) EC50",8.77 µM
same,Emax,"[4]; no addition of β-CNA, repeated dominant assay, Example 4, Tables 8-10, read-out: OPRD Gi β-CNA (−) Emax (%)",104%
same,EC50,[5]; cAMP,0.73 µM
same,OPRM Gi Hill slope,[5]; [7],0.99
same,Emax,"[5]; cAMP, normalized to reference agonist DAMGO",102%
same,"maximal response on decreasing receptor population (dominant tendency), in words","[6]; OPRM cell lines, β-FNA",showed a similar pattern as compared to DAMGO
same,EC50,"[6]; addition of β-FNA, Example 3, Tables 5-7, read-out: OPRM Gi β-FNA (+) EC50",5.86 µM
same,Emax,"[6]; addition of β-FNA, Example 3, Tables 5-7, read-out: OPRM Gi β-FNA (+) Emax (%)",88.2%
same,EC50,"[6]; addition of β-FNA, repeated dominant assay, Example 4, Tables 8-10, read-out: OPRM Gi β-FNA (+) EC50",3.88 µM
same,Emax,"[6]; addition of β-FNA, repeated dominant assay, Example 4, Tables 8-10, read-out: OPRM Gi β-FNA (+) Emax (%)",67.5%
same,EC50,"[6]; no addition of β-FNA, Example 3, Tables 5-7, read-out: OPRM Gi β-FNA (−) EC50",2.09 µM
same,Emax,"[6]; no addition of β-FNA, Example 3, Tables 5-7, read-out: OPRM Gi β-FNA (−) Emax (%)",101%
same,EC50,"[6]; no addition of β-FNA, repeated dominant assay, Example 4, Tables 8-10, read-out: OPRM Gi β-FNA (−) EC50",1.16 µM
same,Emax,"[6]; no addition of β-FNA, repeated dominant assay, Example 4, Tables 8-10, read-out: OPRM Gi β-FNA (−) Emax (%)",100%
